# Where two headings read alike, the source gives them in different places.
# What was measured:
# [1] = tested on: colon (HCT-116), cervical (HeLa), and renal (RFX393) tumor cell lines; assay: MTT antiproliferative assay, all three tumor cell lines; type: cell-based; settings: read-out: GI50 values against all three tumor cell lines
# Method: (§1) Briefly, the tumor cells (1×10^4 cells/well) were seeded in 96-well microtiter plates and incubated for 24 h at 37° C. Following incubation, the media was replaced with fresh media containing the above compounds at concentrations ranging from 1 μM to 1 pM diluted in DMSO and incubated for an additional 48 h. Drugs were run in duplicate or triplicate and control cells received fresh media with DMSO concentration equivalent to the treatment groups. […] After aspirating the culture medium, 200 μL of DMSO was added to dissolve the precipitate and the resulting solution was measured for absorbance at 570 nm with a reference wavelength of 690 nm using a microplate reader (Infinite M200 Pro TECAN).
# [2] = tested on: MDA-MB-231 (breast cancer); assay: MTT antiproliferative assay, MDA-MB-231; type: cell-based; settings: Homo sapiens, read-out: Antiproliferative Activity GI50, Breast MDA-MB-231
# Method: as §1
# HeLa (cervical cancer) = assay: MTT antiproliferative assay, HeLa; type: cell-based; settings: Homo sapiens, 48 h, read-out: Antiproliferative Activity GI50, Cervical HeLa
# Method: as §1
# RFX393 (renal) = assay: MTT antiproliferative assay, RFX393; type: cell-based; settings: 48 h, read-out: Antiproliferative Activity GI50, Renal RFX393
# Method: as §1
# SKOV-3 (ovarian) = assay: MTT antiproliferative assay, SKOV-3; type: cell-based; settings: Homo sapiens, read-out: Antiproliferative Activity GI50, Ovarian SKOV-3
# Method: as §1
# [3] = 10 mg/mL cpd in 20% DMSO/saline
# COLO-205 (colon cancer) = assay: MTT antiproliferative assay, COLO-205; type: cell-based; settings: Homo sapiens, read-out: Antiproliferative Activity GI50, Colon COLO-205
# Method: as §1
# [4] = Maximum tolerated dose (MTD); settings: BALB/c, mouse, in vivo, ip
# Excerpt: BALB/c mice were purchased from The Jackson Laboratory (Bar Harbor, Me.) and used between 7 and 10 weeks of age. Mice were housed in a conventional animal vivarium and were given free access to food and water. All studies and procedures were approved by the Animal Care and Use Committee of the University of Wisconsin, Milwaukee.
# Each animal was initially weighed using a digital scale and then intraperitoneally (IP) injected with the compounds (listed in Table 2). A single mouse was given a single IP dose of 200 mg/kg, body weight, a second mouse received a dose of 100 mg/kg and a third mouse received a single dose of 50 mg/kg. The mice were observed and weighed every other day for a period of 2 weeks. They were euthanized if they lost more than 20% of their body weight or if there were other signs of significant toxicity. […] This process was repeated until a tolerated dose was found, and the MTD value was determined.
# To determine the MTD in vivo, the compounds listed above were injected intraperitoneally into BALB/c mice and morbidity and mortality were monitored over two weeks.
# DU-145 (prostate cancer) = assay: MTT antiproliferative assay, DU-145; type: cell-based; settings: Homo sapiens, read-out: Antiproliferative Activity GI50, Prostate DU-145
# Method: as §1
# HCT-116 (colon cancer) = assay: MTT antiproliferative assay, HCT-116; type: cell-based; settings: Homo sapiens, read-out: Antiproliferative Activity GI50, Colon HCT-116
# Method: as §1
# Recombinant human HDAC3 = biological target: T1, Recombinant human HDAC3 (Homo sapiens, UniProt O15379); assay: HDAC-Glo I/II assay, HDAC3; type: biochemical; settings: Class I HDAC; compounds reduced by TCEP prior to assay
# T1 construct: purchased BPS Bioscience Inc
# Method: (§2) The purified compounds of all fragments and natural product derivatives were evaluated for inhibitory effects on three different classes of HDAC proteins (class I, IIa, and IIb). […] All activity was determined by using a fluorescence-based in vitro assay. Class I HDAC proteins that were evaluated were HDAC1, HDAC2, HDAC3, HDAC8, HDAC4, and HDAC6. Class IIa HDAC protein were HDAC4 and the Class IIb HDAC protein were HDAC6.
# (§3) HDAC-Glo™ I/II Assay and Screening System (Promega) was used to determine the HDAC inhibitory activity. Recombinant human HDAC1, HDAC2, HDAC3, HDAC4, HDAC6 and HDAC8 were purchased from BPS Bioscience Inc. The inhibitory activities of the test compounds against recombinant HDAC were performed according to reagent suppliers' protocols.
# (§4) All test compounds were firstly dissolved in DMSO to make 10 mM stock solution. A certain amount of stock solution was diluted to 1 mM by DMSO and then reduced by tris(2-carboxyethyl)phosphine hydrochloride (TCEP) in a molar ration of 1:1.5 for 20 min at ambient temperature prior to being assayed. After reduction, a series of fivefold dilutions of each reduced compound were prepared with HDAC-Glo buffer and 25 μL of each dilution was added into a well on a 96-well plate. HDAC enzymes were diluted to the desired concentrations with HDAC-Glo buffer and 25 μL of each diluted enzyme was dispensed into a well to mix with 25 μL of testing compound at room temperature for 30-60 seconds. After the reaction mixture had been incubated at room temperature for 1 hour, 50 μL of HDAC-Glo reagent was added to each reaction well and mixed up for 30-60 seconds. Finally, the plate was incubated at room temperature for an additional 30 minutes before the luminescence was measured on a Synergy HT plate reader (Bio-Tek). The luminescence intensity data were analyzed using GraphPad Prism 5 (GraphPad Software). In the absence of any test compound, the luminescence intensity (I100) in each data set was defined as 100% activity. In the absence of both of HDAC enzymes and test compound, the luminescence intensity (I0) in each data set was defined as 0% activity. The relative activity (%) in the presence of each compound was calculated according to the following equation: % activity=(I−I0)/(I100−I0), where I=the luminescence intensity if a compound is present in the reaction. Experiments were performed in triplicate and the calculated mean values were used for plotting.
# Recombinant human HDAC2 = biological target: T2, Recombinant human HDAC2 (Homo sapiens, UniProt Q92769); assay: HDAC-Glo I/II assay, HDAC2; type: biochemical; settings: Class I HDAC; compounds reduced by TCEP prior to assay
# T2 construct: purchased BPS Bioscience Inc
# Method: as §2, §3, §4
# Recombinant human HDAC4 = biological target: T3, Recombinant human HDAC4 (Homo sapiens, UniProt P56524); assay: HDAC-Glo I/II assay, HDAC4; type: biochemical; settings: Class IIa HDAC; compounds reduced by TCEP prior to assay; read-out: IC50 of HDAC4
# T3 construct: purchased BPS Bioscience Inc
# Method: as §2, §3, §4
# Recombinant human HDAC1 = biological target: T4, Recombinant human HDAC1 (Homo sapiens, UniProt Q13547); assay: HDAC-Glo I/II assay, HDAC1; type: biochemical; settings: for IC50: Class I HDAC, compounds reduced by TCEP prior to assay, read-out: IC50 of HDAC1; for Class I selectivity Ratio HDAC 1/HDAC8 / Class I vs. Class IIa Ratio HDAC 1/HDAC6: ratio of IC50 values
# T4 construct: purchased BPS Bioscience Inc
# Method: as §2, §3, §4
# Recombinant human HDAC8 = biological target: T5, Recombinant human HDAC8 (Homo sapiens, UniProt Q9BY41); assay: HDAC-Glo I/II assay, HDAC8; type: biochemical; settings: Class I HDAC; compounds reduced by TCEP prior to assay
# T5 construct: purchased BPS Bioscience Inc
# T5 sequence (Q9BY41 1-377): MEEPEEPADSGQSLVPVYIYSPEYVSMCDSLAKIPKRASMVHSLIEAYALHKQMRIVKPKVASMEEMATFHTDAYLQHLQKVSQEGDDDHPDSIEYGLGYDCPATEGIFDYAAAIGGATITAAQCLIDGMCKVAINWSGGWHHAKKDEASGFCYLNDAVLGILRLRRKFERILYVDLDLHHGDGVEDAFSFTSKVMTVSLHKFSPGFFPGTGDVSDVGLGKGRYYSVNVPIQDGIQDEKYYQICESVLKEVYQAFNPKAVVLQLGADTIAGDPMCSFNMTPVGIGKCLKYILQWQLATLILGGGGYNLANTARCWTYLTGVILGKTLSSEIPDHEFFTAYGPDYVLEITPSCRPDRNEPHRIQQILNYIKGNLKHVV
# Method: as §2, §3, §4
# [5] = HCT-116, HeLa, RFX393, summary of Table 3
# T2 sequence (Q92769 whole entry): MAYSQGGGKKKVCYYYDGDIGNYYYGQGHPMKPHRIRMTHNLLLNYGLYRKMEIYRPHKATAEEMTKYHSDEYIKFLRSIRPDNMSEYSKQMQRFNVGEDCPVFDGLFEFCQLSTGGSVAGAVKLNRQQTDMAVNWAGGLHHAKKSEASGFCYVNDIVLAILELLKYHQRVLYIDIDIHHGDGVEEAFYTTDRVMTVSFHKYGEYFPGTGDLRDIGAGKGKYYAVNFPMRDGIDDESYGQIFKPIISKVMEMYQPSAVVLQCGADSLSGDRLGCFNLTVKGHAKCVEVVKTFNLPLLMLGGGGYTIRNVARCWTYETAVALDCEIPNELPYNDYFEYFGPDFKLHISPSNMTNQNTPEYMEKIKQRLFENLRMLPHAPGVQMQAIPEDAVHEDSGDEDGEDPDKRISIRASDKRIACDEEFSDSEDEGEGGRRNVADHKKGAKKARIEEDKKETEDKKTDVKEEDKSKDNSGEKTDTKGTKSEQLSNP
# T3 sequence (P56524 whole entry): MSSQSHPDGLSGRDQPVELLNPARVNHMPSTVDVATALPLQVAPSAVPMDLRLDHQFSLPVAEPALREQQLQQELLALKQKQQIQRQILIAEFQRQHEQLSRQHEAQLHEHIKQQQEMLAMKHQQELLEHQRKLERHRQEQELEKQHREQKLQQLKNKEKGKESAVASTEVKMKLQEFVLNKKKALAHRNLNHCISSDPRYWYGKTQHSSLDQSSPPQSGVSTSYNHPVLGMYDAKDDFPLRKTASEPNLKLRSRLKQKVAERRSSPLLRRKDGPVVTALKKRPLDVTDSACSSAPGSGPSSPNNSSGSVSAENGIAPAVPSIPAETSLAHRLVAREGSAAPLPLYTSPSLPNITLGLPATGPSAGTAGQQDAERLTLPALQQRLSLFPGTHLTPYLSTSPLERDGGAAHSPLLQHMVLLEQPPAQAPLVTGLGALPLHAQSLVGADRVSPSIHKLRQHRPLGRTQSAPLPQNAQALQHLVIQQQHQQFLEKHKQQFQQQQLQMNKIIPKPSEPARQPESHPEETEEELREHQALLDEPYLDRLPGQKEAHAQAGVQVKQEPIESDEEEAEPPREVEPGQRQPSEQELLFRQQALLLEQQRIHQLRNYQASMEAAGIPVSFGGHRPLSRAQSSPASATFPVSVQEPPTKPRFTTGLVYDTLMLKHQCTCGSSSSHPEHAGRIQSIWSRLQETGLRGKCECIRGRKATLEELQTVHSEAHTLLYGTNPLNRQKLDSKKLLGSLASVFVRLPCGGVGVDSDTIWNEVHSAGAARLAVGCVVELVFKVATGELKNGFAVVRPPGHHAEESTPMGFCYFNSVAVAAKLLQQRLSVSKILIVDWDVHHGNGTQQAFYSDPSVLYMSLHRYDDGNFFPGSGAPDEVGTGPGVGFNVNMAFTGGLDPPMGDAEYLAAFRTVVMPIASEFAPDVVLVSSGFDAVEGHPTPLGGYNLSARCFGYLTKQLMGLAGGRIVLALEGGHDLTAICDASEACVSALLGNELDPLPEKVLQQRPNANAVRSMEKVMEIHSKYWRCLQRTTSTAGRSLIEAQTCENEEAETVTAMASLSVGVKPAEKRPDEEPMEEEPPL
# T1 sequence (O15379 whole entry): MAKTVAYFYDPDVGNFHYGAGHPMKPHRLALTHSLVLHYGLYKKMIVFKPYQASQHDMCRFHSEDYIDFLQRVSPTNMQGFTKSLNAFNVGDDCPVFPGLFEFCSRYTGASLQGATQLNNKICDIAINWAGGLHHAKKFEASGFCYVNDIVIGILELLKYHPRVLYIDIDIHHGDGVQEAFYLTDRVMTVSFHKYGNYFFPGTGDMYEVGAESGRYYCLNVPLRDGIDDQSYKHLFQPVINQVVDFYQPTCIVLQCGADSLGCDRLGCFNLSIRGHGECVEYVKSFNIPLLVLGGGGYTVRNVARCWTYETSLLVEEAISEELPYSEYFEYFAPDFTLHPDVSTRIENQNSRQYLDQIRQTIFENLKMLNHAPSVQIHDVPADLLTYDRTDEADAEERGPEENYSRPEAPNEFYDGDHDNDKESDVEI
# T1 sequence (Q9Y618 395-489 partner limits assumed): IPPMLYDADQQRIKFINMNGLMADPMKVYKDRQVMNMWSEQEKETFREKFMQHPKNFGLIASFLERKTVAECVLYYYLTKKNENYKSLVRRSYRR
# T4 sequence (Q13547 whole entry): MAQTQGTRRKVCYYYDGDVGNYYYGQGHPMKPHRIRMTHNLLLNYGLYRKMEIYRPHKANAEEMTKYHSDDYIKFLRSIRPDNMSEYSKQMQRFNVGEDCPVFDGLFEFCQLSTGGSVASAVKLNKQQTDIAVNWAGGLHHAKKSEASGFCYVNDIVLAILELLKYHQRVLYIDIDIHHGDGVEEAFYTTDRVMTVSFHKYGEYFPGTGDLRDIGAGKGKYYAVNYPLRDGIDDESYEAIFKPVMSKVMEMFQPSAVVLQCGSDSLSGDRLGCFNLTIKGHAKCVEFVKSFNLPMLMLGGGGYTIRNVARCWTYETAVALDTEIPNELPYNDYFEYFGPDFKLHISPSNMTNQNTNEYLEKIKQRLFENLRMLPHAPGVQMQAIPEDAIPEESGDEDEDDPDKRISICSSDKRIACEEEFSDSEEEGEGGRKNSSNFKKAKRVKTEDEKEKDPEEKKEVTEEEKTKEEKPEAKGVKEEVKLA
SMILES,Solubility [3],IC50 (Recombinant human HDAC3),IC50 (Recombinant human HDAC2),IC50 (Recombinant human HDAC4),GI50 (HeLa (cervical cancer); MTT),GI50 (RFX393 (renal); MTT),IC50 (Recombinant human HDAC1),Class I selectivity Ratio HDAC 1/HDAC8 (Recombinant human HDAC1),Class I vs. Class IIa Ratio HDAC 1/HDAC6 (Recombinant human HDAC1),MTD at 2 weeks [4],IC50 (Recombinant human HDAC8),"GI50 (HCT-116 (colon cancer); HCT-116, MTT, 48 h)",other results
"O=C(CCCCCCC(=O)Nc1ccccc1)NO [SAHA, suberoyl anilide hydroxamic acid, reference compound]",Not soluble,,,,,,,,,,,,"GI50 [1]: 2.5 to 3 µM; GI50 ([2]; MDA-MB-231, 48 h): 1500 nM; GI50 (HeLa (cervical cancer)): 2800 nM; GI50 (RFX393 (renal)): 2500 nM; GI50 (SKOV-3 (ovarian); SK-OV-3, 48 h): 1500 nM; GI50 (COLO-205 (colon cancer); COLO 205, 48 h): 500 nM; MTD at 2 weeks ([4]; MTD (toxicity in healthy BALB/c mice), single IP dose, observed 2 weeks): > 200 mg/kg; GI50 (DU-145 (prostate cancer); DU-145, 48 h): 2000 nM; GI50 (HCT-116 (colon cancer); HCT-116, 48 h): 2700 nM"
CCC(C)[C@H]1NC(=O)[C@H]2CSSCC/C=C/[C@H](CC(=O)N[C@H](CCSC)C(=O)N2)OC(=O)C[C@@H]1OC(=O)c1ccccc1 (stereo partly shown) [TDC1],Not soluble,640 nM,51 nM,~500 µM,225 nM,35.1 nM,10.9 nM,0.00252,0.0020,50 mg/kg,3.67 µM,24.7 nM,"GI50 ([2]; MDA-MB-231, MTT, 48 h): 40 nM; GI50 (SKOV-3 (ovarian); SK-OV-3, MTT, 48 h): 30 nM; GI50 (COLO-205 (colon cancer); COLO 205, MTT, 48 h): 70 nM; GI50 (DU-145 (prostate cancer); DU-145, MTT, 48 h): 80 nM"
CCC(C)[C@H]1NC(=O)[C@H]2CSSCC/C=C/[C@H](CC(=O)N[C@H](CCSC)C(=O)N2)OC(=O)C[C@@H]1OCCC=O (stereo partly shown) [TDC2],Not soluble,701 nM,37 nM,135 µM,141 nM,51 nM,9.6 nM,0.00096,0.0064,12.5 mg/kg,4.33 µM,56 nM,
CCC(C)[C@H]1NC(=O)[C@H]2CSSCC/C=C/[C@H](CC(=O)N[C@H](CCSC)C(=O)N2)OC(=O)C[C@@H]1OC(C)=O (stereo partly shown) [TDC3],Not soluble,245 nM,44.2 nM,40.5 µM,332 nM,107 nM,2.7 nM,0.00006,0.0020,> 200 mg/kg,10 µM,120 nM,
CCC(C)C(NC(=O)CC(O)/C=C/CCS)C(=O)O (stereo not shown) [TDF4],Mostly soluble,714 nM,,> 1000 µM,4800 nM,4100 nM,3.9 nM,,,> 200 mg/kg,43.9 µM,3700 nM,"GI50 [1, 5]: ≤ 5 µM"
CC(C)[C@H](NC(=O)CC(O)/C=C/CCS)C(=O)O (stereo partly shown) [TDF6],Soluble,41.6 nM,111 nM,> 1000 µM,3600 nM,3100 nM,3.5 nM,0.00003,,> 200 mg/kg,16.6 µM,1300 nM,"GI50 [1, 5]: ≤ 4 µM"
"CCC(C)[C@H]1NC(=O)[C@H]2CSSCC/C=C/[C@H](CC(=O)N[C@H](CCSC)C(=O)N2)OC(=O)C[C@@H]1O (stereo partly shown) [TDP-A, Thailandepsin A, reference compound]",Not soluble,7.7 nM,8.1 nM,20.5 µM,0.36 nM,0.47 nM,2.4 nM,0.00065,0.0088,6.25 mg/kg,8.44 µM,0.93 nM,"GI50 ([2]; MDA-MB-231, MTT, 48 h): 3 nM; GI50 (SKOV-3 (ovarian); SK-OV-3, MTT, 48 h): 2 nM; GI50 (COLO-205 (colon cancer); COLO 205, MTT, 48 h): 3.5 nM; GI50 (DU-145 (prostate cancer); DU-145, MTT, 48 h): 1 nM"
"CCCC[C@H]1NC(=O)C[C@H]2/C=C/CCSSC[C@@H](NC1=O)C(=O)N[C@H](C(C)CC)[C@@H](O)CC(=O)O2 (stereo partly shown) [TDP-B, Thailandepsin B, reference compound]",Not soluble,48.2 nM,25.6 nM,27.9 µM,2.1 nM,2.2 nM,2.2 nM,0.00026,0.0034,6.25 mg/kg,10.9 µM,2 nM,
